Here are results for 16 molecules from patent US5786367A, “Cyclic amide derivatives” (Otsuka Pharmaceutical Co., Ltd., priority 1994, dated 1998).

This assay has as its system skin erythema. The experiment in a line: Activity for inhibiting skin erythema caused by ultraviolet radiation. It is filed as in vivo, albino guinea pig (Hartley strain, female, 7-8 week age). To be noted: for inhibition in vivo at 3 %: Cavia porcellus, read-out: Rate of activity for inhibiting the skin erythema; for 50% inhibitory concentration (IC50) for inhibiting the skin erythema: topical, three concentrations within 0.1 to 10%. On the procedure: The hairs covering in the back of albino guinea pig (Hartley strain, female, 7-8 week age) were shaved by using an electric hair clippers and a shaver. In the next day, the guinea pig was fixed in Bowlman's cage, then a light shield tape (adhesive plaster for patch test), having 4 round holes of 1.5 cm in diameter was adhered on the hair clipped portion so as to provide 4 sites (round holes) to be exposed to the ultraviolet rays. […] Each one of the test sample solutions was prepared by dissolving each test compounds in three kinds of concentrations within 0.1 to 10%, and applied.

Setting [1] is: 3% concentration of test compound, 10 μl topical, UV 1.3-1.5 mW/cm^2 for 30 minutes, measured 24 hours later.

Structures can show the parent of a compound that is named as a salt.

For the molecule “5,7-diallyl-3,4-dihydro-6-hydroxy-1-(2-hydroxybutyl)-2(1H)-quinolinone [Example 110]”, the “Rate of activity for inhibiting the skin erythema” value under setting [1] came to 44%. Turning to `C=CCc1cc2c(c(CC=C)c1O)NC(=O)CO2` [Example 35, 5,7-diallyl-6-hydroxy-3-(2H)-1,4-benzoxazinone], the “50% inhibitory concentration (IC50) for inhibiting the skin erythema” value (from here on “50% inhibitory concentration (IC50)”) stood at 5.9 concentration in %. Also, under setting [1], the inhibition in vivo at 3 % came to 41%. Taken in the same sequence, the figures for `C=CCc1cc2c(c(CC=C)c1O)OCC(=O)N2CC=C` [Example 36, 7-hydroxy-4,6,8-triallyl-3(2H)-1,4-benzoxazinone] were 9.8 concentration in % and 26%. Consider `C=CCc1cc2c(c(CC=C)c1O)N(CC=C)C(=O)CO2` [Example 37, 6-hydroxy-4,5,7-triallyl-3(2H)-1,4-benzoxazinone], for which the “50% inhibitory concentration (IC50)” value was found to be 7.7 concentration in %. The inhibition in vivo at 3 % under setting [1] turned out to be 39%. For `C=CCc1cc2c(c(CC=C)c1O)CCC(=O)N2CCCCl` [Example 42, 1-(3-chloropropyl)-5,7-diallyl-3,4-dihydro-6-hydroxy-2(1H)-quinolinone], the inhibition in vivo at 3 % under setting [1] was determined as 45%. For the molecule `C=CCc1cc2c(c(CC=C)c1O)CCC(=O)N2CCCN1CCCCC1` [Example 71, 5,7-diallyl-3,4-dihydro-6-hydroxy-1-[3-(piperidinopropyl)]-2(1H)-quinolinone], the inhibition in vivo at 3 % under setting [1] is 45%. On to `C=CCc1cc2c(c(CC=C)c1O)CCC(=O)N2CCCN1CCOCC1` [Example 72], for which, under setting [1], the inhibition in vivo at 3 % came to 33%. For the molecule `C=CCc1cc2c(c(CC=C)c1O)CCC(=O)N2CC(N)=O` [Example 77, 1-(carbamoylmethyl)-5,7-diallyl-3,4-dihydro-6-hydroxy-2(1H)-quinolinone], the “50% inhibitory concentration (IC50)” value was determined as 2.7 concentration in %. The inhibition in vivo at 3 % under setting [1] was determined as 50%.

Regarding `C=CCc1cc2c(c(CC=C)c1O)CCC(=O)N2CCCCNCCCC` [Example 84, 1-(4-n-butylaminobutyl)-5,7-diallyl-3,4-dihydro-6-hydroxy-2(1H)-quinolinone.oxalate], under setting [1], the inhibition in vivo at 3 % was found to be 31%. `C=CCc1cc2c(c(CC=C)c1O)CCC(=O)N2CCCCNC(C)(C)CO` [Example 85, 5,7-Diallyl-3,4-dihydro-6-hydroxy-1-[4-(2-hydroxy-1,1-dimethyl)ethylamino]butyl-2-(1H)-quinolinone. oxalate]: the inhibition in vivo at 3 % under setting [1] came out at 39%. For `C=CCc1cc2c(c(CC=C)c1O)CCC(=O)N2CCCCn1ccnc1` [Example 87, 5,7-Diallyl-3,4-dihydro-6-hydroxy-1-[4-(imidazol-1-yl)butyl]-2-(1N)-quinolinone.oxalate], under setting [1], the inhibition in vivo at 3 % came out at 28%. With `C=CCc1cc2c(c(CC=C)c1O)CCC(=O)N2CCCn1cnnc1` [Example 88, 5,7-diallyl-3,4-dihydro-6-hydroxy-1-[3-(1,2,4-triazol-4-yl)propyl]-2(1H)-quinolinone], the inhibition in vivo at 3 % under setting [1] was 37%. Regarding `C=CCc1cc2c(c(CC=C)c1O)CCC(=O)N2CCCCCCCCCCCC` [Example 102], the “50% inhibitory concentration (IC50)” value was 3.7 concentration in %. Moreover, the inhibition in vivo at 3 % under setting [1] came out at 57%. In the case of `C=CCc1cc2c(c(CC=C)c1O)CCC(=O)N2CCCCOC(C)=O` [Example 104], under setting [1], the inhibition in vivo at 3 % turned out to be 31%.

`C=CCc1cc2c(c(CC=C)c1O)CCC(=O)N2CCCCC(=O)OC` [Example 105]: the inhibition in vivo at 3 % under setting [1] came to 44%. `C=CCc1cc2c(c(CC=C)c1O)CCC(=O)N2Cc1ccc(C(=O)OC)cc1` [Example 107, 5,7-Diallyl-3,4-dihydro-6-hydroxy-1-(4-methoxycarbonylbenzyl)-2(1H)-quinolinone]: the inhibition in vivo at 3 % under setting [1] came out at 44%.
